In the NIST ThermoML archive (doi:10.1021/je100577v):

What was measured:
[1] = xn = mol fraction of the nth substance listed; details: Liquid, Vibrating tube method, x2 = 0
[2] = Liquid; for mass density: Vibrating tube method; for vapor or sublimation pressure: Ebulliometric method (Recirculating still)

CCCO [propan-1-ol] + CC12CCC(CC1)C(C)(C)O2
mass density [kg/m3], [1]
Details | 20000 kPa | 25000 kPa | 30000 kPa | 35000 kPa | 40000 kPa
283.15 K | 825.1 | 828.4 | 831.5 | 834.5 | 837.4
298.15 K | 814.2 | 817.6 | 820.9 | 824 | 827.1
313.15 K | 803.1 | 806.9 | 810.4 | 813.7 | 817
328.15 K | 792 | 795.8 | 799.6 | 803.1 | 806.6

CC12CCC(CC1)C(C)(C)O2 [1,3,3-trimethyl-2-oxabicyclo[2.2.2]octane]
mass density [kg/m3], [2]
Details | 20000 kPa | 25000 kPa | 30000 kPa | 35000 kPa | 40000 kPa
283.15 K | 945.9 | 949.1 | 952 | 954.9 | 957.6
298.15 K | 934.1 | 937.4 | 940.5 | 943.4 | 946.4
313.15 K | 922.3 | 925.8 | 929.1 | 932.4 | 935.5
328.15 K | 910.6 | 914.3 | 917.9 | 921.3 | 924.7

[2]
Details | vapor or sublimation pressure [kPa]
326.65 K | 1.33
341.55 K | 2.67
357.25 K | 5.33
363.45 K | 6.67
381.45 K | 13.33
392.75 K | 20
401.75 K | 26.66
408.65 K | 33.33
414.65 K | 40
419.95 K | 46.66
424.65 K | 53.33
428.85 K | 60
432.75 K | 66.66
436.35 K | 73.33
439.75 K | 79.99
442.85 K | 86.66
445.85 K | 93.33
448.65 K | 99.61
449.15 K | 101.33

CCCO [propan-1-ol]
mass density [kg/m3], [2]
Details | 20000 kPa | 25000 kPa | 30000 kPa | 35000 kPa | 40000 kPa
283.15 K | 825.1 | 828.4 | 831.5 | 834.5 | 837.4
298.15 K | 814.2 | 817.6 | 820.9 | 824 | 827.1
313.15 K | 803.1 | 806.9 | 810.4 | 813.7 | 817
328.15 K | 792 | 795.8 | 799.6 | 803.1 | 806.6

[2]
Details | vapor or sublimation pressure [kPa]
319.65 K | 10
327.25 K | 15
332.95 K | 20
337.45 K | 25
341.25 K | 30
343.55 K | 33.33
344.65 K | 35
347.65 K | 40
350.35 K | 45
352.75 K | 50
355.05 K | 55
357.05 K | 60
359.05 K | 65
359.65 K | 66.66
360.85 K | 70
362.55 K | 75
364.15 K | 80
365.65 K | 85
367.15 K | 90
370.05 K | 101.33
